Experimental data from patent US20210186972A1, “FORMULATIONS AND METHODS FOR THE PREVENTION AND TREATMENT OF TUMOR METASTASIS AND TUMORIGENESIS” (THE UNITED STATES OF AMERICA, AS REPRESENTED BY THE …, priority 2018, published 2021).

Experiments:
NSG PANC1 mice = experiment: Orthotopic pancreatic cancer metastasis model, daily IP treatment; type: in vivo
Experimental: Because pancreatic cancer patients suffer particular high mortality from metastasis, the in vivo efficacy of metarrestin against metastasis in an orthotopic pancreatic cancer metastasis model was evaluated. The 3D PANC1 cell spheres model, deployed in NOD/interleukin 2 receptor common gamma chain (Il2rγ)^null (NSG) PANC-1 mice (see Suemizu et al., “Identification of a key molecular regulator of liver metastasis in human pancreatic carcinoma using a novel quantitative model of metastasis in NOD/SCID/gammacnull (NOG) mice.” Int. J. Oncol., (31): 741-51 (2007), incorporated herein in its entirety), recapitulates human cancer progression and metastatic phenotype of the disease without the limitations of early death due to complications of local invasion, such as gastric outlet obstruction or impingement of the common bile duct. Sixty thousand 3D luciferase-expressing PANC1-luc cell spheres were injected orthotopically into the pancreas of NSG mice. […] By 8 weeks, macrometastasis on the liver surface were visible.
Four weeks after inoculation, mice were treated once daily with metarrestin (5 mg/kg or 25 mg/kg) or vehicle via IP injections, continuing for six weeks. […] The treatment was well-tolerated, and animals maintained their body weight (FIG. 11).
To determine whether PNCs in treated animals were impacted by metarrestin, PNC prevalence in primary tumors and metastatic lesions from control and metarrestin-treated animals (25 mg/kg) were examined 12 weeks after tumor inoculation. […] PNC prevalence in non-treated animals was higher in these groups of tumors and metastatic lesions than in those harvested at an earlier time (FIG. 6) or in cultured PANC1 cells (FIG. 2), consistent with previous findings that late-stage cancers have higher PNC prevalence.
Pancreatic cancer model: 60,000 luciferase-tagged PANC1 spheres were injected into the pancreas of Nod/IL2gamma (null) mice (obtained from NCI Mouse Repository, Frederick, Md.; on ACUC-approved animal protocol SB-211-2). At 4 weeks after inoculation, mice were treated once daily with metarrestin (5 mg/kg or 25 mg/kg) or vehicle via IP injections, which extended out for 6 more weeks. Mice were injected with luciferin 5 minutes before being sacrificed by CO2 euthanasia. Organs were then individually dissected, subjected to quantitative xenogene imaging, and fixed with 4% non-buffered formaldehyde. Impact of metastatic burden was calculated and graphed as liver and lung/primary tumor ratios based on a five-minute photon count for the liver normalized to liver weight (g), which was then compared to the average photon count per weight (g) of the primary pancreatic tumor of the same animal. This calculation corrects for variations in luciferin injection, mouse heart rate, and perfusion. For overexpression of eEF1A2, 6*10^4 PANC1 3D spheres transduced with eEF1A2 (eEF1A2 OE) were injected into the tail of the pancreas of NSG mice. Mice of both groups were harvested at 6 weeks after implantation and subjected to necropsy. Liver metastasis/mm^2 was calculated as the sum of the […] of the individual metastases. Tumor volume (mm^3) was calculated as (L×W2), where L=length (mm) and W=width (mm). Animal survival was measured from the first day of treatment until death. […]

[1] = system: HeLa, PANC1 and PC3M cells; PANC1 xenograft tumor tissues; experiment: Nucleolar structure by electron microscopy and immunofluorescence in cancer cells and tumor tissues; type: cell-based, human
Experimental: Representative electron micrographs are shown for HeLa cells (FIG. 21A; treated at 1 μM for 24 hours), primary pancreatic tumors (FIG. 21B), and liver metastases (FIG. 21C) from NSG PANC1 mice treated with vehicle (top) or 10 mg/kg metarrestin (bottom) for 7 days. […] Scale bar=1 μm.
100 nucleoli were randomly selected and analyzed to calculate nucleolar area as ((largest+shortest diameter)/2)^2×π). The comparison of mean nucleolar areas was performed using Mann Whitney U test, 2-tailed, n=4 animals per group.
To address the mechanisms by which metarrestin inhibits metastasis, cellular changes after metarrestin treatment were observed. Primary antibodies: 1:300 dilution for SH54 (anti-PTB antibody); 1:300 for Nopp140 (anti-human Nopp140 rabbit polyclonal serum RS8); 1:50 for UBF (F-9) (Santa Cruz Biotechnology); 1:100 for RPA194 (Santa Cruz Biotechnology); 1:100 for CUG-BP1 (3B1) (Santa Cruz Biotechnology); 1:10 for fibrillarin (Sigma Cat #: ANA-N); 1:1000 for SC35; 1:300 for paxillin (ab32084); 1:600 for vinculin (Sigma V9131). The fluorescein-conjugated secondary antibodies (Jackson ImmunoResearch) and ALEXA FLUOR antibodies (Thermofisher Scientific) were used at a dilution of 1:200. Samples were visualized on a Nikon ECLIPSE Ti-E inverted fluorescence microscope using NIS-Elements AR 3.2 software (Nikon).
The nucleolar disruption was reversible within 48 hours upon withdrawal of metarrestin (FIG. 47). Similar disruptions were observed among other treated cell lines, including PANC1 and PC3M cells (FIG. 48), primary tumor, and liver metastatic tissues in the PANC1 xenograft model (FIG. 21, right panels). […] The segregation of the nucleolar compartments observed by EM is believed to correspond to the nucleolar capping structures detected by immunofluorescence of nucleolar proteins (FIGS. 21A-21C, 23, and 50). […]

[2] = 5 or 25 mg/kg IP once daily for six weeks

Structure (SMILES): N=c1c2c(-c3ccccc3)c(-c3ccccc3)n(Cc3ccccc3)c2ncn1[C@H]1CC[C@H](O)CC1 [metarrestin]
- Metastatic burden in liver (NSG PANC1 mice; 25 mg/kg IP once daily for six weeks, vs vehicle, p<0.01): decrease in metastatic burden
- Metastatic burden in lung (NSG PANC1 mice; 25 mg/kg IP once daily for six weeks, vs vehicle, p<0.05): decrease in metastatic burden
- PNC prevalence in metastatic and primary tumor tissues (NSG PANC1 mice; 25 mg/kg, 12 weeks after tumor inoculation, p<0.01): significant reduction of PNC prevalence
- Primary tumor weight (NSG PANC1 mice; [2]): not significantly changed
- Tolerability, body weight (NSG PANC1 mice; [2]): well-tolerated
- Nucleolar structure ([1]; 1 μM, electron microscopy): induced collapse of the nucleolus
- Time to reversal of nucleolar disruption upon withdrawal ([1]; after 1 μM for 24 hours, HeLa cells): ≤ 48 h
- Nucleolar volume ([1]; treated cell lines and cancer tissues, p<0.0001): significantly reduced
